Experimental data as given in patent US20060069038A1, “Irreversible caspase-3 inhibitors as active site probes” (priority 2003, published 2006).
Like-named read-outs stand apart in the source and are kept apart here.

Biological target: T1, purified recombinant human caspase-3 (Homo sapiens, UniProt P42574)
T1 construct: Active site shared between large and small caspase subunit
T1 sequence (P42574 29-175 limits assumed): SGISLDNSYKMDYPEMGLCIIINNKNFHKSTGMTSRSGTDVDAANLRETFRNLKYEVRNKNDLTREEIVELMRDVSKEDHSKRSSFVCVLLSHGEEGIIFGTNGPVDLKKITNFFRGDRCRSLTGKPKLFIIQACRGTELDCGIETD
T1 sequence (P42574 176-277 limits assumed): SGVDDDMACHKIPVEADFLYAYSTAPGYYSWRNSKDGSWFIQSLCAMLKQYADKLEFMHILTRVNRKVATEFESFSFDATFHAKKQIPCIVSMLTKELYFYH
Assay: Caspase inhibitor titration by [125I]-M808 labeling of purified recombinant human caspase-3 (SDS-PAGE)
Type: binding
Protocol: FIG. 3. Potency assessment caspase inhibitors by [^125]-M808 labeling and by DEVD-AMC cleavage activity. A, B-Caspase inhibitor titration and [^125]-M808 labeling with purified recombinant human caspase-3. A-M791 with 5 minute labeling reaction and M791 with 60 minute labeling reaction. In A, the indicated IC50 was defined as the concentration of M791 that reduced the intensity of [^125I]-M808-labeled p17 subunit of caspase-3 by 50%. B-Caspase inhibitor titration and DEVD-AMC cleavage activity with recombinant human caspase-3 that had been incubated with indicated concentration of M791. Under the fluorogenic assay conditions Ki=IC50/2.
The determination of caspase activity by [^125I]-M808 labeling was performed by pre-incubating purified recombinant human caspase-3 with indicated amounts of caspase inhibitor (M791) or vehicle (DMSO), for 1 hour at 25° C. in ICE buffer III (50 mM Hepes-KOH pH 7.0, 0.1% CHAPS, 10% sucrose, 2 mM EDTA), supplemented with 5 mM DTT. [^125I]-M808 was added to a final concentration of 1.25 μM and incubated for 5 min at 25° C. Active caspases in tissue or cell extracts were labeled by incubating 60-80 μg of lysate with [^125I]-M808 for 15 minutes at 25° C. Labeling was stopped by addition of Laemli buffer (2% SDS; 0.35 M O-mercaptoethanol; 50 mM Tris-Cl pH 6.8; 10% glycerol; 0.05% bromophenol blue) and by heating at 95° C. for 5 minutes. […]

IC50 ([125I]-M808 added for 5 minutes, read-out: IC50 by [125I]-M808 labeling (50% reduction of labeled p17 subunit)): 0.45 nM
IC50 (incubating with [125I]-M808 for 60 minutes instead of 5, read-out: apparent IC50 by [125I]-M808 labeling): 1 nM
SMILES: COc1ccc(-c2nc(C)no2)cc1CC(=O)N[C@H](C(=O)N[C@@H](CC(=O)O)C(=O)CSCc1ccccc1)C(C)C [Example M791, (3S)-5-(benzylthio)-3-[(N-{[2-methoxy-5-(3-methyl-1,2,4-oxadiazol-5-yl)phenyl]acetyl}-L-valyl)amino]4-oxopentanoic acid]
